Here are results for 28 compounds from patent US10112899B2 (ViiV HEALTHCARE UK LIMITED, priority 2014, dated 2018).

The structures appear in SMILES notation.

By IC50 is commonly meant the concentration that gives 50% inhibition. Low values mean greater potency, high ones weaker potency.

For the test, the system named is HIV in the HTLV-1 transformed cell line MT-4. As to the kind of experiment: organism not typed. The test is classed as cell-based. The following applies: MT-4 cells, luciferase/cell titer glo readout after 96 hours, 10 point dose response.

Turning to `Cc1ccc(-c2c(C)c3c(c(C)c2[C@H](OC(C)(C)C)C(=O)O)CN(C(=O)N2CCC(C)(C)CC2)C3)cc1` [Example 84, (S)-2-(tert-butoxy)-2-(2-(4,4-dimethylpiperidine-1-carbonyl)-4,7-dimethyl-6-(p-tolyl)isoindolin-5-yl)acetic acid], the IC50 (MT4, 96 h) worked out at 11 nM.
The same measure, in the same setting: next, `Cc1ccc(-c2c(C)c3c(c(C)c2[C@H](OC(C)(C)C)C(=O)O)CN(S(=O)(=O)N2CCCCC2)C3)cc1` [Example 50, (2S)-2-(tert-butoxy)-2-[4,7-dimethyl-6-(4-methylphenyl)-2-(piperidine-1-sulfonyl)-2,3-dihydro-1H-isoindol-5-yl]acetic acid]: 29 nM.
The compound `Cc1ccc(-c2c(C)c3c(c(C)c2[C@H](OC(C)(C)C)C(=O)O)CN(C(=O)CC(C)(C)C)C3)cc1` [Example 110, (S)-2-(tert-butoxy)-2-(2-(3,3-dimethylbutanoyl)-4,7-dimethyl-6-(p-tolyl)isoindolin-5-yl)acetic acid] had a half-maximal inhibitory concentration (IC50) (MT4, 96 h) of 6 nM.
Same read-out and setting: next, `Cc1ccc(-c2c(C)c3c(c(C)c2[C@H](OC(C)(C)C)C(=O)O)CN(C(=O)NC(C)(C)C)C3)cc1` [Example 63]: 15 nM; `Cc1ccc(-c2c(C)c3c(c(C)c2[C@H](OC(C)(C)C)C(=O)O)CN(C(=O)N2CCCCCC2)C3)cc1` [Example 60, (2S)-2-[2-(azepane-1-carbonyl)-4,7-dimethyl-6-(4-methylphenyl)-2,3-dihydro-1H-isoindol-5-yl]-2-(tert-butoxy)acetic acid]: 14 nM.
In turn, `COC1CCCC(C(=O)N2Cc3c(C)c(-c4ccc(C)cc4)c([C@H](OC(C)(C)C)C(=O)O)c(C)c3C2)C1` (stereo partly drawn) [Example 244, (2S)-2-(tert-butoxy)-2-(2-(3-methoxycyclohexanecarbonyl)-4,7-dimethyl-6-(p-tolyl)isoindolin-5-yl)acetic acid] displayed an IC50 (MT4, 96 h) of 14 nM.
As for `Cc1ccc(-c2c(C)c3c(c(C)c2[C@H](OC(C)(C)C)C(=O)O)CN(C(=O)c2cocn2)C3)cc1` [Example 272, (S)-2-(tert-butoxy)-2-(4,7-dimethyl-2-(oxazole-4-carbonyl)-6-(p-tolyl)isoindolin-5-yl)acetic acid], the concentration for half-maximal inhibition (IC50) (MT4, 96 h) amounted to 86 nM.
The same measure, in the same setting: next, `Cc1ccc(-c2c(C)c3c(c(C)c2[C@H](OC(C)(C)C)C(=O)O)CN(C(=O)N2CCC(F)CC2)C3)cc1` [Example 89, (S)-2-(tert-butoxy)-2-(2-(4-fluoropiperidine-1-carbonyl)-4,7-dimethyl-6-(p-tolyl)isoindolin-5-yl)acetic acid]: 11 nM; `Cc1c(-c2c(C)c3c(c(C)c2[C@H](OC(C)(C)C)C(=O)O)CN(C(=O)c2cc(F)c(F)c(F)c2)C3)cc(F)c2c1CCCO2` (atropisomer, axis not shown; (M)) [Example 173, (S)-2-(tert-butoxy)-2-((M)-6-(8-fluoro-5-methylchroman-6-yl)-4,7-dimethyl-2-(3,4,5-trifluorobenzoyl)isoindolin-5-yl)acetic acid]: 3 nM.
`Cc1ccc(-c2c(C)c3c(c(C)c2[C@H](OC(C)(C)C)C(=O)O)CN(C(=O)N2CCC(F)(F)C2)C3)cc1` [Example 68, (2S)-2-(tert-butoxy)-2-[2-(3,3-difluoropyrrolidine-1-carbonyl)-4,7-dimethyl-6-(4-methylphenyl)-2,3-dihydro-1H-isoindol-5-yl]acetic acid] displayed an IC50 (MT4, 96 h) of 8 nM.
The same measure, in the same setting: next, `Cc1c2c(c(C)c([C@H](OC(C)(C)C)C(=O)O)c1-c1ccc(Cl)cc1)CN(C(=O)N1CCCCC1)C2` [Example 132, (S)-2-(tert-butoxy)-2-(6-(4-chlorophenyl)-4,7-dimethyl-2-(piperidine-1-carbonyl)isoindolin-5-yl)acetic acid]: 21 nM; `Cc1ccc(-c2c(C)c3c(c(C)c2[C@H](OC(C)(C)C)C(=O)O)CN(C(=O)c2cc(F)c(Cl)c(F)c2)C3)cc1` [Example 282, (S)-2-(tert-butoxy)-2-(2-(4-chloro-3,5-difluorobenzoyl)-4,7-dimethyl-6-(p-tolyl)isoindolin-5-yl)acetic acid]: 7 nM; `Cc1ccc(-c2c(C)c3c(c(C)c2[C@H](OC(C)(C)C)C(=O)O)CN(C(=O)NC2CCCCC2)C3)cc1` [Example 4, (S)-2-(tert-Butoxy)-2-(2-(cyclohexylcarbamoyl)-4,7-dimethyl-6-(p-tolyl)isoindolin-5-yl)acetic acid]: 33 nM.
The compound `Cc1ccc(-c2c(C)c3c(c(C)c2[C@H](OC(C)(C)C)C(=O)O)CN(C(=O)N2CCCOCC2)C3)cc1` [Example 76, (2S)-2-(tert-butoxy)-2-[4,7-dimethyl-6-(4-methylphenyl)-2-(1,4-oxazepane-4-carbonyl)-2,3-dihydro-1H-isoindol-5-yl]acetic acid] registered an IC50 (MT4, 96 h) of 12 nM.
The same measure, in the same setting: the result for `Cc1ccc(C(=O)N2Cc3c(C)c(-c4cc(F)c5c(c4C)CCCO5)c([C@H](OC(C)(C)C)C(=O)O)c(C)c3C2)c(C)c1` (atropisomer, axis not shown; (M)) [Example 189, (S)-2-(tert-butoxy)-2-((M)-2-(2,4-dimethylbenzoyl)-6-(8-fluoro-5-methylchroman-6-yl)-4,7-dimethylisoindolin-5-yl)acetic acid] reads 4 nM; that for `Cc1c2c(c(C)c([C@H](OC(C)(C)C)C(=O)O)c1C1=CCC(C)(C)CC1)CN(C(=O)c1cccc3c1OCO3)C2` [Example 307, (S)-2-(2-(benzo[d][1,3]dioxole-4-carbonyl)-6-(4,4-dimethylcyclohex-1-en-1-yl)-4,7-dimethylisoindolin-5-yl)-2-(tert-butoxy)acetic acid], 4 nM.
On the same count and under the same terms, the result for `Cc1c(-c2c(C)c3c(c(C)c2[C@H](OC(C)(C)C)C(=O)O)CN(C(=O)c2cccc(Cl)c2)C3)cc(F)c2c1CCCO2` (atropisomer, axis not shown; (M)) [Example 147, (S)-2-(tert-butoxy)-2-((M)-2-(3-chlorobenzov)-6-(8-fluoro-5-methylchroman-6-yl)-4,7-dimethylisoindolin-5-yl)acetic acid] reads 13 nM; that for `Cc1c(Cl)cccc1C(=O)N1Cc2c(C)c(-c3cc(F)c4c(c3C)CCCO4)c([C@H](OC(C)(C)C)C(=O)O)c(C)c2C1` (atropisomer, axis not shown; (M)) [Example 172, (S)-2-(tert-butoxy)-2-((M)-2-(3-chloro-2-methylbenzoyl)-6-(8-fluoro-5-methylchroman-6-yl)-4,7-dimethylisoindolin-5-yl)acetic acid], 7 nM; that for `Cc1ccc(-c2c(C)c3c(c(C)c2[C@H](OC(C)(C)C)C(=O)O)CN(C(=O)c2ccc(F)c(Cl)c2)C3)cc1` [Example 252, (S)-2-(tert-butoxy)-2-(2-(3-chloro-4-fluorobenzoyl)-4,7-dimethyl-6-(p-tolyl)isoindolin-5-yl)acetic acid], 4 nM.
In the case of `Cc1ccc(-c2c(C)c3c(c(C)c2[C@H](OC(C)(C)C)C(=O)O)CN([C@@H]2CCC[C@@H](C)C2)C3)cc1` [Example 37, (2S)-2-(tert-butoxy)-2-{4,7-dimethyl-2-[(1R,3R)-3-methylcyclohexyl]-6-(4-methylphenyl)-2,3-dihydro-1H-isoindol-5-yl}acetic acid], the half-inhibitory concentration (IC50) stood at 723 nM. In other words, the sub-micromolar range.
On the same count and under the same terms, the result for `COC1CCCC(C(=O)N2Cc3c(C)c(-c4ccc(C)cc4)c([C@H](OC(C)(C)C)C(=O)O)c(C)c3C2)C1` (stereo partly drawn) [Example 245, (2S)-2-(tert-butoxy)-2-(2-(3-methoxycyclohexanecarbonyl)-4,7-dimethyl-6-(p-tolyl)isoindolin-5-yl)acetic acid] reads 26 nM.
For the compound `Cc1ccc(F)cc1C(=O)N1Cc2c(C)c(-c3cc(F)c4c(c3C)CCCO4)c([C@H](OC(C)(C)C)C(=O)O)c(C)c2C1` (atropisomer, axis not shown; (M)) [Example 177, (S)-2-(tert-butoxy)-2-((M)-2-(5-fluoro-2-methylbenzoyl)-6-(8-fluoro-5-methylchroman-6-yl)-4,7-dimethylisoindolin-5-yl)acetic acid], 2 nM corresponded to half-maximal inhibition (MT4, 96 h) (IC50).
The same measure, in the same setting: next, `Cc1ccc(-c2c(C)c3c(c(C)c2[C@H](OC(C)(C)C)C(=O)O)CN(Cc2cccc(F)c2)C3)cc1` [Example 22, (S)-2-(tert-butoxy)-2-(2-(3-fluorobenzyl)-4,7-dimethyl-6-(p-tolyl)isoindolin-5-yl)acetic acid]: 20 nM.
Where the note is “MT4, 96 h”, `Cc1ccc(-c2c(C)c3c(c(C)c2[C@H](OC(C)(C)C)C(=O)O)CN(C(=O)c2ccnn2C)C3)cc1` [Example 223, (S)-2-(tert-butoxy)-2-(4,7-dimethyl-2-(1-methyl-1H-pyrazole-5-carbonyl)-6-(p-tolyl)isoindolin-5-yl)acetic acid] displayed an IC50 of 13 nM.
Turning to `Cc1ncccc1C(=O)N1Cc2c(C)c(-c3cc(F)c4c(c3C)CCCO4)c([C@H](OC(C)(C)C)C(=O)O)c(C)c2C1` (atropisomer, axis not shown; (M)) [Example 142, (S)-2-(tert-butoxy)-2-((M)-6-(8-fluoro-5-methylchroman-6-yl)-4,7-dimethyl-2-(2-methylnicotinoyl)isoindolin-5-yl)acetic acid], where the note is “MT4, 96 h”, the IC50 was found to be 31 nM.
The same measure, in the same setting: next, `Cc1ccc(-c2c(C)c3c(c(C)c2[C@H](OC(C)(C)C)C(=O)O)CN(C(=O)C2CCC(F)(F)CC2)C3)cc1` [Example 111, (S)-2-(tert-butoxy)-2-(2-(4,4-difluorocyclohexanecarbonyl)-4,7-dimethyl-6-(p-tolyl)isoindolin-5-yl)acetic acid]: 16 nM.
In the case of `Cc1ccc(-c2c(C)c3c(c(C)c2[C@H](OC(C)(C)C)C(=O)O)CN(C(=O)N2CC[C@H](F)C2)C3)cc1` [Example 294, (S)-2-(tert-butoxy)-2-(2-((S)-3-fluoropyrrolidine-1-carbonyl)-4,7-dimethyl-6-(p-tolyl)isoindolin-5-yl)acetic acid], the concentration for half-maximal inhibition (IC50) (MT4, 96 h) was 4 nM. Compared with the last compound, the IC50 is about 4-fold lower.
In turn, `Cc1ccc(-c2c(C)c3c(c(C)c2[C@H](OC(C)(C)C)C(=O)O)CN(C(=O)c2cccc(OC(C)C)c2)C3)cc1` [Example 234, (S)-2-(tert-butoxy)-2-(2-(3-isopropoxybenzoyl)-4,7-dimethyl-6-(p-tolyl)isoindolin-5-yl)acetic acid] registered a 50% inhibitory concentration (IC50) (MT4, 96 h) of 26 nM.
